# Measured values: patent publication US20230105725A1, “HIGHLY SAFE NON-LAMELLAR LIQUID CRYSTAL FORMING COMPOSITION” (FARNEX INCORPORATED, priority 2020, published 2023)
# Assay: Viscosity of the amphipathic compound
# Format: physicochemical
# Conditions: not given
# Procedure: Specifically, the amphipathic compound represented by the general formula (I) has a viscosity of preferably 15.0 Pa·s or less, more preferably 11.0 Pa·s or less, further preferably 6.0 Pa·s or less, by itself, as measured at 25° C. This viscosity can be measured using, for example, a viscosity and viscoelasticity measuring apparatus (Gemini II, Malvern Instruments Ltd.) at a temperature of 25° C.
row,Viscosity [Pa·s],SMILES
1,1.7,"CC(=CCCC(=O)OCC(CO)(CO)CO)CCCC(C)CCCC(C)CCCC(C)C (stereo not shown) [C22 pentaerythritol ester, mono-O-(5,9,13,17-tetramethyloctadec-4-enoyl)pentaerythritol]"

# Same assay, conditions: at shear velocity of 92 1/s
row,Viscosity [Pa·s],SMILES
1,0.37,"CC(C)=CCC/C(C)=C/CC/C(C)=C/CCC(C)=CCCC(=O)OCC(O)CO (stereo not shown) [glyceryl geranylgeranylacetate, mono-O-(5,9,13,17-tetramethyloctadeca-4,8,12,16-tetraenoyl)glycerol]"

# Assay: Gel formation test of precursor formulations in excess aqueous medium
# Format: physicochemical
# Conditions: self-organizing lipid (SOL) criterion
# Procedure: The precursor formulations of Nos. 1 to 75 thus prepared were subjected to a gel formation test. An aliquot (about 100 to 300 mg) of each precursor formulation was added to an excess aqueous medium (about 0.5 to 2 mL of injectable water for Nos. 1 to 61 and 64 to 75 or phosphate buffered saline (PBS) of pH 7.4 for Nos. 62 and 63) in a vial, and mixed at room temperature (25° C.) with a spatula or a vortex mixer. As a result, all the precursor formulations of Nos. 1 to 75 produced gel compositions having colorless transparent to white turbid appearance separated in the excess aqueous medium. […]
row,SMILES,gel formation of the lipid used alone by mixing with water
1,"C/C(=C\C(=O)OCC(C)O)CCCC(C)CCCC(C)CCCC(C)C (stereo not shown) [C20 propylene glycol ester, mono-O-(3,7,11,15-tetramethylhexadec-2-enoyl)propylene glycol]",do not form a gel
2,"CC(=CCCC(=O)OCC(C)O)CCCC(C)CCCC(C)C (stereo not shown) [C17 propylene glycol ester, mono-O-(5,9,13-trimethyltetradec-4-enoyl)propylene glycol]",do not form a gel
3,"CC(=CCCC(=O)OCCC(C)(C)O)CCCC(C)CCCC(C)CCCC(C)C (stereo not shown) [C22 isoprene glycol ester, mono-O-(5,9,13,17-tetramethyloctadec-4-enoyl)3-methyl-1,3-butanediol]",do not form a gel
4,"CC(=CCCC(=O)OCCO)CCCC(C)CCCC(C)CCCC(C)C (stereo not shown) [C22 ethylene glycol ester, mono-O-(5,9,13,17-tetramethyloctadec-4-enoyl)ethylene glycol]",do not form a gel
5,"CC(=CCC(=O)OCC(C)O)CCCC(C)CCCC(C)CCCC(C)C (stereo not shown) [C21 propylene glycol ester, mono-O-(4,8,12,16-tetramethylheptadec-3-enoyl)propylene glycol]",do not form a gel
6,"CC(=CCCC(=O)OCCC(C)O)CCCC(C)CCCC(C)CCCC(C)C (stereo not shown) [C22 butylene glycol ester, mono-O-(5,9,13,17-tetramethyloctadec-4-enoyl)1,3-butylene glycol]",do not form a gel

# The remaining lines, values ahead:
row,gel formation of the lipid used alone by mixing with water,SMILES
1,do not form a gel,"CC(C)CCCC(C)CCCC(C)CCCC(C)CC(=O)OCC(C)O (stereo not shown) [saturated C20 propylene glycol ester, mono-O-(3,7,11,15-tetramethylhexadecanoyl)propylene glycol]"
2,do not form a gel,"CC(C)CCCC(C)CCCC(C)CCCC(C)CCCC(=O)OCC(C)O (stereo not shown) [saturated C22 propylene glycol ester, mono-O-(5,9,13,17-tetramethyloctadecanoyl)propylene glycol]"
